Results on 18 compounds are retold here after patent US8580825B2, “Oxadiazole inhibitors of leukotriene production” (Boehringer Ingelheim International GmbH, priority 2010, dated 2013).

Experiment [1] concerns biomarkers for myocardial infarction risk. The settings on record: clinical trial; cited from earlier work.
Experiment [2] has as its target T1, recombinant human FLAP protein (Homo sapiens, UniProt P20292).
T1 construct: made in house; host or cells: Sf9 insect cells (100,000xg membrane fraction used)
T1 sequence (P20292 1-161): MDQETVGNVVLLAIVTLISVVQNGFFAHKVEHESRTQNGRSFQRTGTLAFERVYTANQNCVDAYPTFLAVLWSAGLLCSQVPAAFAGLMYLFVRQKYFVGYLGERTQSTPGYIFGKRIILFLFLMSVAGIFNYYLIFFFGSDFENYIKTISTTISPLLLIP
As to the kind of experiment: FLAP binding assay (Scintillation Proximity Assay, displacement of [125I]L-691,831). To be noted: read-out: FLAP SPA IC50. Put shortly:
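Scintillation proximity displacement of [125I]L-691,831 (0.08 nM) from membranes of sf9 cells expressing recombinant human FLAP (5 μg/well) on WGA SPA beads, pH 7.5 Tris buffer. Plates shaken 2 h before counting. Non-specific binding defined with 10 μM unlabelled L-691,831.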
For orientation: In a scintillation proximity assay essentially only radioactivity close to the scintillant gives light.

Experiment [3] deals with synthesis of LTB4 in human whole blood. As to the kind of experiment: human whole blood LTB4 production inhibition assay. The experiment is classed as cell-based. The settings on record: calcimycin stimulated, read-out: hWB LTB4 IC50. Put shortly: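 Steps: compound plus heparinized human whole blood, 15 min at 37° C; add calcimycin to 20 μM final; incubate another 30 min at 37° C; centrifuge at low speed and collect plasma; measure LTB4 with a homogeneous time-resolved fluorescence immunoassay.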

Another experiment relates to human glomerulonephritis. The settings on record: clinical trial; cited from earlier work.
The subject of experiment [4] is apoE/LDL-R double knockout mice. The settings on record: oral dosing, high-fat diet from 2 months of age to 6 months; cited from earlier work.
In another experiment the test system is ApoE−/−xCD4dnTβRII mice. The settings on record: infusion, treated for four weeks; cited from earlier work.

As to `O=C(O)[C@@H](c1ccc(OCc2ccc3ccccc3n2)cc1)C1CCCC1` [DG-031], in experiment [1], the “effect on biomarkers for myocardial infarction risk” value was “dose-dependent suppression of several biomarkers”. A word on the IC50: it is the point on the concentration scale where inhibition reaches its midpoint. As for `CNc1cnc(-c2ccc([C@](C)(c3noc(-c4cnn(CC(C)(C)O)c4)n3)C3CC3)cn2)cn1` [Example 156, 1-[4-(3-{(R)-1-Cyclopropyl-1-[6-(5-methylamino-pyrazin-2-yl)-pyridin-3-yl]-ethyl}-[1,2,4]oxadiazol-5-yl)-pyrazol-1-yl]-2-methyl-propan-2-ol], the IC50 worked out at 27 nM in experiment [2] and 54 nM in experiment [3]. The matching figures for `CNc1cnc(-c2ccc([C@@](C)(c3noc(-c4cnn(CC(C)(C)O)c4)n3)C3CC3)cn2)cn1` [Example 157, 1-[4-(3-{(S)-1-Cyclopropyl-1-[6-(5-methylamino-pyrazin-2-yl)-pyridin-3-yl]-ethyl}-[1,2,4]oxadiazol-5-yl)-pyrazol-1-yl]-2-methyl-propan-2-ol]: 420 nM and 969 nM. For `CC(C)(O)Cn1cc(-c2nc(C(C)(c3ccc(-c4cnc(N)c(F)c4)nc3)C3CC3)no2)cn1` (centres unmarked) [Example 158, 1-(4-{3-[1-(6′-Amino-5′-fluoro-[2,3′]bipyridinyl-5-yl)-1-cyclopropyl-ethyl]-[1,2,4]oxadiazol-5-yl}-pyrazol-1-yl)-2-methyl-propan-2-ol], in that order: 230 nM and 502 nM.

As for `CC(C)(O)Cn1cc(-c2nc(C(C)(c3ccc(-c4cnc5[nH]ccc5n4)nc3)C3CC3)no2)cn1` (centres unmarked) [Example 159, 1-[4-(3-{1-Cyclopropyl-1-[6-(5H-pyrrolo[2,3-b]pyrazin-2-yl)-pyridin-3-yl]-ethyl}-[1,2,4]oxadiazol-5-yl)-pyrazol-1-yl]-2-methyl-propan-2-ol], the IC50 in experiment [2] is 27 nM; in experiment [3], 167 nM. As to `C[C@@](c1ccc(-c2cnc(N)cn2)nc1)(c1noc(-c2cnn(C3COC3)c2)n1)C1CC1` [Example 160, 5-(5-{(R)-1-Cyclopropyl-1[5-(1-oxetan-3-yl-1H-pyrazol-4-yl)-[1,2,4]oxadiazol-3-yl]-ethyl}-pyridin-2-yl)-pyrazin-2-ylamine], the IC50 in experiment [2] stood at 15 nM; in experiment [3], 23 nM. The matching figures for `C[C@@](c1ccc(-c2cnc(N)cn2)nc1)(c1noc(-c2cnn(CC#N)c2)n1)C1CC1` [Example 161, [4-(3-{(R)-1-[6-(5-Amino-pyrazin-2-yl)-pyridin-3-yl]-1-cyclopropyl-ethyl}-[1,2,4]oxadiazol-5-yl)-pyrazol-1-yl]-acetonitrile]: 21 nM and 32 nM. The matching figures for `CC(C)(O)Cn1cc(-c2nc([C@@](C)(c3ccc(-c4cnc(N)nc4C#N)nc3)C3CC3)no2)cn1` [Example 163, 2-Amino-5-[5-((R)-1-cyclopropyl-1-{5-[1-(2-hydroxy-2-methyl-propyl)-1H-pyrazol-4-yl]-[1,2,4]oxadiazol-3-yl}-ethyl)-pyridin-2-yl]-pyrimidine-4-carbonitrile]: 290 nM and 348 nM.

As for `CC(C)(O)Cn1cc(-c2nc([C@@](C)(c3ccc(-c4cnc(N)c(C#N)n4)nc3)C3CC3)no2)cn1` [Example 164, 3-Amino-6-[5-((R)-1-cyclopropyl-1-{5-[1-(2-hydroxy-2-methyl-propyl)-1H-pyrazol-4-yl]-[1,2,4]oxadiazol-3-yl}-ethyl)-pyridin-2-yl]-pyrazine-2-carbonitrile], the figures for the IC50 in experiment [2] and in experiment [3] were 40 nM and 97 nM, respectively.

For the compound `CNc1ncc(-c2ccc([C@](C)(c3noc(-c4cnn(CC(C)(C)O)c4)n3)C3CC3)cn2)cn1` [Example 165, 1-[4-(3-{(R)-1-Cyclopropyl-1-[6-(2-methylamino-pyrimidin-5-yl)-pyridin-3-yl]-ethyl}-[1,2,4]oxadiazol-5-yl)-pyrazol-1-yl]-2-methyl-propan-2-ol], the half-inhibitory concentration (IC50) in experiment [2] is 56 nM; in experiment [3], 82 nM. The matching figures for `Cc1nc(N)cnc1-c1ccc([C@](C)(c2noc(-c3cnn(CC(C)(C)O)c3)n2)C2CC2)cn1` [Example 166, 1-[4-(3-{(R)-1-[6-(5-Amino-3-methyl-pyrazin-2-yl)-pyridin-3-yl]-1-cyclopropyl-ethyl}-[1,2,4]oxadiazol-5-yl)-pyrazol-1-yl]-2-methyl-propan-2-ol]: 41 nM and 57 nM. For `CC(C)(O)Cn1cc(-c2nc([C@@](C)(c3ccc(-c4cnc(N)c(F)c4)nc3)C3CC3)no2)cn1` [Example 177, 1-(4-{3-[(R)-1-(6′-Amino-5′-fluoro-[2,3′]bipyridinyl-5-yl)-1-cyclopropyl-ethyl]-[1,2,4]oxadiazol-5-yl}-pyrazol-1-yl)-2-methyl-propan-2-ol], in that order: 65 nM and 256 nM. For `CC(C)(O)Cn1cc(-c2nc([C@](C)(c3ccc(-c4cnc(N)c(F)c4)nc3)C3CC3)no2)cn1` [Example 178, 1-(4-{3-[(S)-1-(6′-Amino-5′-fluoro-[2,3′]bipyridinyl-5-yl)-1-cyclopropyl-ethyl]-[1,2,4]oxadiazol-5-yl}-pyrazol-1-yl)-2-methyl-propan-2-ol], the 50% inhibitory concentration (IC50) was found to be 2000 nM in experiment [2] and 2350 nM in experiment [3].

In the case of `Cc1nc(N)ncc1-c1ccc(C(C)(c2noc(-c3cnn(CC(C)(C)O)c3)n2)C2CC2)cn1` (centres unmarked) [Example 179, 1-[4-(3-{1-[6-(2-Amino-4-methyl-pyrimidin-5-yl)-pyridin-3-yl]-1-cyclopropyl-ethyl}-[1,2,4]oxadiazol-5-yl)-pyrazol-1-yl]-2-methyl-propan-2-ol], the IC50 in experiment [2] is 450 nM; in experiment [3], 483 nM. For `Cc1nc(N)ncc1-c1ccc(C(C)(c2noc(-c3cnn(C)c3)n2)C2CC2)cn1` (centres unmarked) [Example 180, 5-(5-{1-Cyclopropyl-1-[5-(1-methyl-1H-pyrazol-4-yl)-[1,2,4]oxadiazol-3-yl]-ethyl}-pyridin-2-yl)-4-methyl-pyrimidin-2-ylamine], in that order: 190 nM and 309 nM.

With `Cn1cc(-c2nc(C(C)(c3ccc(-c4cnc(N)cn4)nc3)C3CC3)no2)cn1` (centres unmarked) [Example 181, 5-(5-{1-Cyclopropyl-1-[5-(1-methyl-1H-pyrazol-4-yl)-[1,2,4]oxadiazol-3-yl]-ethyl}-pyridin-2-yl)-pyrazin-2-ylamine], the figures for the IC50 in experiment [2] and in experiment [3] were 34 nM and 65 nM, respectively. As for `CC(C)(C)Sc1c(CC(C)(C)C(=O)O)n(Cc2ccc(Cl)cc2)c2ccc(OCc3ccc4ccccc4n3)cc12` [MK-591], the effect on proteinuria result in the experiment on human glomerulonephritis is “reduce proteinuria”. As to `CC(C)c1ccc2c(c1)c(SC(C)(C)C)c(CC(C)(C)C(=O)O)n2Cc1ccc(Cl)cc1` [MK-886], in experiment [4], the “decrease in plaque coverage in the aorta” value is listed as 56% and the “decrease in plaque coverage in the aortic root” value is given as 43%. Further, in the experiment on ApoE−/−xCD4dnTβRII mice, the “decrease in plaque area in the aortic root” value was roughly 40%.
